In patent US20170266266A1, “Functions of 55 Newfound Proteins and Their Medicinal Application in the Treatment and Prevention of Disease” (priority 2012, published 2017):
Where two headings read alike, the source gives them in different places.

Experiments:
[1] = test system: fatty streak lesions in rabbits on high fat diet; type: in vivo, rabbit; conditions: for TC/HDL-C: Atorvastatin group
Experimental: The rabbits were fasted for 12 hrs before the beginning of the experiments. Blood parameters were then tested as the normal level of plasma indicators. A total of 52 rabbits were purchased at different time, four of them were used as normal control and fed with normal diet the whole time during the experiments. […] Plasma concentrations of total cholesterol (TC), […] (TG), low density lipoprotein-cholesterol (LDL-C), very low density lipoprotein-cholesterol (VLDL-C), high density lipoprotein-cholesterol (HDL-C) were quantified by enzymatic assays. TC/HDL-C or ([…] ratios were then determined. Animals were sacrificed under deep anesthesia with sodium pentobarbital 25 mg/kg IV. The entire aorta from the aortic valve to the iliac bifurcation was removed from each rabbit and opened longitudinally. […] Atheromatous lesions were measured without staining Atheromatous lesions were manually traced in the photographs, and the percent area of the atheromatous lesions was calculated. Sample of aorta from animals were homogenated. And the content of lipid was determined.

[2] = test system: atherosclerosis in ApoE knock out mouse on high fat diet
Description: 10 ApoE ko mice were fed with regular chow diet and used as negative control group. 50 ApoE ko mice were fed with high fat diet (35% kcal fat, 1% cholesterol) for 8 weeks, and then the plasma samples were collected for lipid profile measurement before the treatment. 50 ApoE ko mice were assigned into 5 groups based on the fasting overnight plasma TC and HDL level.
5.2. Study Timeline: • 23 Dec. 2011: 60 ApoE mice arrived at chempartner and were housed in the animal facility in the building #3 for the acclimation. • 6 Jan. 2012: Measured the body weight for each mouse. 50 mice were fed with high fat diet and 10 mice were fed with normal chow diet. • 2 Mar. 2012: All mice were fasted over night and plasma samples (about 300 ul whole blood) were collected for lipid profile measurement before treatment with RAAS antibody. • 19 Mar. 2012 to 6 Apr. […] 2012: All mice were fasted over night and plasma sample for each mouse (about 300 ul whole blood) was collected for lipid profile measurement after 16 weeks treatment. Blood glucose was also measured for each mouse. • 9 Jul. 2012: The study was terminated after 16 weeks treatment. Measure BW, sacrificed each mouse, dissected the aorta, heart, liver and kidney and fixed them in 4% PFA.
Antibody products were administrated by intraperitoneal injection every two days (Monday, Wednesday, and Friday). and the positive compound was administered by p.o every day.
The body weight was weighed weekly during the period of treatment. The fasting overnight blood glucose was measured at the end of study by Roche glucometer.
About 300 ul of blood sample was collected from the orbital vein for each mouse and centrifuged at 7000 rpm for 5 min at 4E and the plasma lipid profile was measured by Roche Modular automatic biochemistry analyzer in DaAn Medical Laboratory
After RAAS antibody products treatment for 16 weeks, all mice were sacrificed. Measured body weight and collected blood sample for each mouse. Weighed liver weight and saved a tiny piece of liver into 4% paraformaldehyde (PFA) fixation solution for further analysis. At same time, take the photos with heart, lung, aortas and two kidneys.
5.8. Oil Red Staining Procedure: • 1. Sacrificed the mice and dissected the heart, aorta, and arteries under dissecting microscope. • 2. Briefly wash with PBS and fixed in 4% paraformaldehyde (PFA) overnight at 4[…]. • 3. Rinse with 60% isopropanol • 4. Stain with freshly prepared Oil Red O working solution 10 min. • 1). Oil red O stock stain: 0.5% powder in isopropanol • 2). Working solution: dilute with distilled water (3:2) and filter with membrane (0.22 um) • 5. Rinse with 60% isopropanol 10 second. • 6. Dispel the adherent bit fat outside of the aorta under the dissecting microscope. • 7. Cut the vascular wall gently and keep the integrated arteries using the micro scissors. • 8. Unfold the vascular inner wall with the cover slides and fix it by water sealing tablet.
Scanning the glasses slides with the Aperio ScanScope system and analyze with the image proplus software to measure the area of atherosclerotic plaque lesion. The results were expressed as the percentage of the total aortic surface area covered by lesions. The operation procedure of software was briefly described as follow: Converted the sys version photos into JPG version, then calibrated it and subsequently selected the red regions and then calculate the total area automatically by image proplus software.
The results were expressed as the Mean±SEM and statistically evaluated by student's t-test.

[3] = test system: atherosclerosis in New Zealand white rabbit on high fat diet; conditions: rabbit, in vivo
Experimental: New Zealand rabbits were adopted in this animal study and divided into 5 groups. They were high dose, medium dose and low dose of treatment, positive and vehicle control. The treatment groups were given APOAI via auricular vein once a week. […] Positive controls were given Liptor daily by p.o. with a dose of 0.45 mg/kg body weight. […] The study duration was 19 weeks. At the end of study, all animals were sacrificed. […] Lipid content was examined in liver and aorta. And liver index was also determined.
The body weight was between 1.8-2.0 kg. The animals were quarantined for 5-10 days with normal diet before study.
Animals were randomly divided into 5 groups including vehicle control, high dose, medium dose, low dose and positive control group. Ten to 14 rabbits were in one group. Each rabbit was fed with 30 gram of high fat diet followed by 120 gram of normal diet with free access to water.
The frequency of dosing was once a week. Dose was 80, 40, 20 mg/kg body weight respectively. Drug was given by intravenous injection via auricular vein with the volume of 5 mL.
5.1 body weight: body weight of each rabbit was determined once a week.
Resulted blood samples were kept still for 2 hours and then spin with 4,000 rpm for 10 min.
Abdomen cavity was opened. Whole blood was taken from heart. Heart was harvested along with 7 cm of aorta.
The aorta was dissected for 0.5 cm from aortic arch, split longitudinally and then kept in cryo-preservation tube for later lipid analysis. One piece of this sample was fixed in formalin for further pathological analysis.
The weight of liver was determined immediately. Two pieces of specimen were cut from hepatic lobe.
Resulted blood samples were kept still for 2 hours.
The aorta was dissected and opened for 7.5 cm from aortic arch longitudinally. Pictures were taken and atherosclerosis changing was analyzed.

Influenza H1N1 A/WSN/33 = type: in vivo, BALB/c mice
[4] = test system: Influenza A/Weiss/43 H1N1 in MDCK cells; test: microbe, parasite or virus in culture; type: cell-based
3T3-L1 adipocytes = test: Glucose uptake assay; type: cell-based
Experimental: Study Protocol • 1. 3T3-L1 fibroblasts were cultured in DMEM containing 25 mM glucose and 10% bovine calf serum at 37 °C with 5% CO2. • 2. 3T3-L1 fibroblasts were differentiated into adipocytes 2 days post confluent with the same DMEM medium containing 1 ug/ml insulin (Sigma-Aldrich), 1 uM dexamethasone (Sigma-Aldrich), and 0.5 mM isobutyl-1-methylxanthine (Sigma-Aldrich). • 3. Media were replaced with DMEM containing 10% FBS and 1 ug/ml insulin and culture 2 days. • 4. Seed 1×10^5 3T3-L1 adipocytes to 96 wells cell culture plate (DMEM, 10% FBS, 1% PS, 1 ug/ml insulin) • 5. Before experiments, adipocytes were incubated in serum free medium for starvation overnight. • 6. Dilute each sample 100 folds (2 ul primal solution to 198 ul buffer) in corresponding buffer. Add 2 ul of sample primal solution, 100 folds diluted solution and buffer to 198 ul KRPH buffer. • 7. 3T3-L1 adipocytes were washed with KRPH buffer (5 mM Na2HPO4, 20 mM HEPES, pH 7.4, 1 mM MgSO4.1 mM CaCl2, 136 mM NaCl, […], and 1% BSA) three times, Add 90 ul/well KRPH containing human insulin and samples to assay plate, incubate for 30 min at 37[…] and 5% CO2. • 8. Add 10 ul KRPH containing 0.25 uCi 1-[3H]-2-deoxyglucose/well and 50 umol/l 2-deoxyglucose and Incubate 10 min in 95% air/5% CO2 at 37[…] • 9. The transport was stopped by rinsing the cells with cold PBS containing 10 mM glucose for three times. • 10. The adipocytes were lysed in 50 ul 10% KOH for 5 min • 11. Then the aliquots were subjected to scintillation counting using TriCap.

[5] = H1N1 + Oseltamivir, dose printed 0.2/0.4 ml/mouse

CC(C)c1c(C(=O)Nc2ccccc2)c(-c2ccccc2)c(-c2ccc(F)cc2)n1CC[C@@H](O)C[C@@H](O)CC(=O)O [Atorvastatin, reference compound]
lipid con. at dissected aorta ([1]; Atorvastatin group (n = 4), triglyceride content): 0.0274 ± 0.006 µmol/mg | TC/HDL-C ([1]; Wk 0 (start of high fat diet)): 1.844 | TC/HDL-C ([1]; Wk 10 (before Atorvastatin administration)): 4.511 | TC/HDL-C ([1]; Wk 18 (end of Atorvastatin administration)): 6.811 | liver weight ([2]; 40 mg/kg, 16 weeks treatment): significantly reduced | TC net change ([2]; 16 week treatment): not reduce the TC net change | net change of LDL ([2]; 16 week treatment): no significant difference in net change of LDL | plaque area and percentage of plaque area in total inner vascular area ([2]; 16 weeks): mild trend to decrease percentage of plaque area | plaque lesion area of aorta ([2]; 16 weeks treatment, atorvastatin 40 mg/kg): did not affect the plaque lesion area of aorta

CC(C)c1c(C(=O)Nc2ccccc2)c(-c2ccccc2)c(-c2ccc(F)cc2)n1CC[C@@H](O)C[C@@H](O)CC(=O)O [Liptor, reference compound]
calcification, pathological examination [3]: one animal with calcification

CCOC(=O)C1=C[C@@H](OC(CC)CC)[C@H](NC(C)=O)[C@@H](N)C1 [Osletamivir, Oseltamivir]
mice survived to the end of experiment (Influenza H1N1 A/WSN/33; 1 mg/kg orally twice daily for 8 days): 4 out of 5 | Mean day to death ± S.D. (Influenza H1N1 A/WSN/33; [5]): >14 ± 0.0 days | Survivor/total (Influenza H1N1 A/WSN/33; [5]): 4/4 | body weight drop (Influenza H1N1 A/WSN/33; mouse, in vivo): < 15% | EC50 ([4]; A/Weiss/43 H1N1, MDCK cells, read-out: EC50): 890 nM | EC50 ([4]; Influenza A/Weiss/43 H1N1 in MDCK cells, MTT after 72 hours, positive control, read-out: anti H1N1 EC50s): 890 nM

insulin
EC50 (3T3-L1 adipocytes; dose response AFOD 1 / AFOD RAAS 109, run N1): 7.08 nM | EC50 (3T3-L1 adipocytes; dose response AFOD 1 / AFOD RAAS 109, run N2): 8.64 nM | EC50 (3T3-L1 adipocytes; dose response AFOD RAAS 107 / AFOD KH, run N1): 3.09 nM | EC50 (3T3-L1 adipocytes; dose response AFOD RAAS 107 / AFOD KH, run N2): 10.2 nM | EC50 (3T3-L1 adipocytes; dose response AFOD RAAS 107 / AFOD KH, run N3): 4.17 nM
